In patent publication US11006631B2, “Substituted pyrimidinyloxy pyridine derivatives as herbicides” (FMC Corporation, priority 2015, dated 2021):

Columns and labels:
Format in all cases: in vivo
[1] = test system: blackgrass (Alopecurus myosuroides); assay: Test A postemergence, blackgrass; conditions: 0 to 100 scale
Description: (§1) Seeds of plant species selected from bamyardgrass (Echinochloa crus-galli), kochia (Kochia scoparia), ragweed (common ragweed, Ambrosia elatior), ryegrass, Italian (Italian ryegrass, Lolium multiflorum), foxtail, giant (giant foxtail, Setaria faberii), pigweed (Amaranthus retroflexus), crabgrass, large (large crabgrass, Digitaria sanguinalis), momingglory (Ipomoea spp.), velvetleaf (Abutilon theophrasti), wheat (Triticum aestivum), and corn (Zea mays) were planted into a blend of loam soil and sand and treated preemergence with a directed soil spray using test chemicals formulated in a non-phytotoxic solvent mixture which included a surfactant. At the same time, plants selected from these crop and weed species and also blackgrass (Alopecurus myosuroides), and galium (catchweed bedstraw, Galium aparine) were planted in pots containing the same blend of loam soil and sand and treated with postemergence applications of test chemicals formulated in the same manner. Plants ranged in height from 2 to 10 cm and were in the one- to two-leaf stage for the postemergence treatment. Treated plants and untreated controls were maintained in a greenhouse for approximately 10 days, after which time all treated plants were compared to untreated controls and visually evaluated for injury. Plant response ratings, summarized in Table A, are based on a 0 to 100 scale where 0 is no effect and 100 is complete control. A dash (-) response means no test result.

[2] = test system: soybean (Glycine max); assay: Test C postemergence, soybean
Description: (§2) Seeds of plant species selected from blackgrass (Alopecurus myosuroides), ryegrass, Italian (Italian ryegrass, Lolium multiflorum), wheat (winter wheat, Triticum aestivum), galium (catchweed bedstraw, Galium aparine), corn (Zea mays), crabgrass, large (large crabgrass, Digitaria sanguinalis), foxtail, giant (giant foxtail, Setaria faberii), lambsquarters (Chenopodium album), morningglory (Ipomoea coccinea), nutsedge, yellow (yellow nutsedge, Cyperus esculentus), pigweed (Amaranthus retroflexus), johnsongrass (Sorghum halepense), ragweed (common ragweed, Ambrosia elatior), soybean (Glycine max), barnyardgrass (Echinochloa crus-galli), oilseed rape (Brassica napus), waterhemp (common waterhemp, Amaranthus rudis), chickweed (common chickweed, Stellaria media), oat, wild (wild oat, Avena fatua), kochia (Kochia scoparia), and velvetleaf (Abutilon theophrasti) were planted in pots containing Redi-Earth® planting medium (Scotts Company, 14111 Scottslawn Road, Marysville, Ohio 43041) comprising spaghnum peat moss, vermiculite, wetting agent and starter nutrients and treated with postemergence applications of a test chemical formulated in a non-phytotoxic solvent mixture which included a surfactant. Plants ranged in height from 2 to 18 cm (1- to 4-leaf stage) for postemergence treatments. Treated plants and controls were maintained in a greenhouse for 13 to 15 days, after which time all species were compared to controls and visually evaluated. Plant response ratings, summarized in Table C, are based on a scale of 0 to 100 where 0 is no effect and 100 is complete control. A dash (-) response means no test result.

[3] = test system: pigweed (Amaranthus retroflexus); assay: Test A postemergence, pigweed; conditions: 0 to 100 scale
Summary of the method: (§3)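 Visual injury score, 0 = no effect, 100 = complete control, assigned against untreated controls about 10 days post-treatment. Greenhouse pots, loam/sand soil. Pre: directed soil spray at planting. Post: plants 2–10 cm, one- to two-leaf stage. Solvent/surfactant formulation.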

[4] = test system: ducksalad (Heteranthera limosa); assay: Test B flooded paddy test, ducksalad; conditions: Flood, 250 g ai/ha; scale of 0 to 100
Summary of the method: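 Plants were grown to the 2-leaf stage, then pots were flooded to 3 cm above the soil and compound was applied directly into the paddy water, with that depth held throughout. After 13 to 15 days in a greenhouse, injury was rated visually against untreated controls on a 0 to 100 scale (100 = complete control).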

[5] = test system: wheat (Triticum aestivum); assay: Test A postemergence, wheat; conditions: 0 to 100 scale
Summary of the method: as §3

[6] = test system: ragweed (common ragweed, Ambrosia elatior); assay: Test A preemergence, ragweed; conditions: 0 to 100 scale
Description: as §1

[7] = test system: pigweed (Amaranthus retroflexus); assay: Test A preemergence, pigweed; conditions: 0 to 100 scale
Summary of the method: as §3

[8] = test system: foxtail, giant (giant foxtail, Setaria faberii); assay: Test A preemergence, foxtail, giant; conditions: 0 to 100 scale
Summary of the method: as §3

[9] = test system: foxtail, giant (giant foxtail, Setaria faberii); assay: Test A postemergence, foxtail, giant; conditions: 0 to 100 scale
Summary of the method: as §3

[10] = test system: foxtail, giant (giant foxtail, Setaria faberii); assay: Test C postemergence, foxtail, giant
Description: as §2

[11] = test system: corn (Zea mays); assay: Test C postemergence, corn
Description: as §2

[12] = test system: galium (catchweed bedstraw, Galium aparine); assay: Test C postemergence, galium
Description: as §2

[13] = test system: crabgrass, large (large crabgrass, Digitaria sanguinalis); assay: Test C postemergence, crabgrass, large
Description: as §2

[14] = test system: galium (catchweed bedstraw, Galium aparine); assay: Test A postemergence, galium; conditions: 0 to 100 scale
Description: as §1

[15] = test system: oilseed rape (Brassica napus); assay: Test C postemergence, oilseed rape
Description: as §2

[16] = test system: ryegrass, Italian (Italian ryegrass, Lolium multiflorum); assay: Test A postemergence, ryegrass, Italian; conditions: 0 to 100 scale
Description: as §1

[17] = test system: waterhemp (common waterhemp, Amaranthus rudis); assay: Test C postemergence, waterhemp
Description: as §2

[18] = test system: nutsedge, yellow (yellow nutsedge, Cyperus esculentus); assay: Test C postemergence, nutsedge, yellow
Description: as §2

[19] = test system: ragweed (common ragweed, Ambrosia elatior); assay: Test A postemergence, ragweed; conditions: 0 to 100 scale
Description: as §1

FC(F)c1cc(-c2ncccc2Oc2ncc(Cl)cn2)on1 [Compound 5, 5-chloro-2-[[2-[3-(difluoromethyl)-5-isoxazolyl]-3-pyridinyl]oxy]pyrimidine]
60: Plant response rating, Soybean ([2]; 16 g ai/ha) | Plant response rating, Galium ([14]; 125 g ai/ha) | Plant response rating, Oilseed Rape ([15]; 31 g ai/ha) | Plant response rating, Oilseed Rape ([15]; 62 g ai/ha) | Plant response rating, Waterhemp ([17]; 16 g ai/ha) | Plant response rating, Ragweed ([19]; 125 g ai/ha)
15: Plant response rating, Crabgrass, Large ([13]; 31 g ai/ha) | Plant response rating, Crabgrass, Large ([13]; 62 g ai/ha) | Plant response rating, Crabgrass, Large ([13]; 125 g ai/ha)
35: Plant response rating, Galium ([12]; 16 g ai/ha)
100: Plant response rating, Pigweed ([7]; 125 g ai/ha)
70: Plant response rating, Soybean ([2]; 31 g ai/ha)
85: Plant response rating, Oilseed Rape ([15]; 125 g ai/ha) | Plant response rating, Waterhemp ([17]; 125 g ai/ha)
40: Plant response rating, Soybean ([2]; 62 g ai/ha) | Plant response rating, Galium ([14]; 31 g ai/ha)
80: Plant response rating, Pigweed ([3]; 31 g ai/ha) | Plant response rating, Pigweed ([7]; 31 g ai/ha) | Plant response rating, Foxtail, Giant ([8]; 125 g ai/ha) | Plant response rating, Galium ([12]; 62 g ai/ha)
75: Plant response rating, Ducksalad [4] | Plant response rating, Galium ([12]; 31 g ai/ha) | Plant response rating, Waterhemp ([17]; 62 g ai/ha)
0: Plant response rating, Blackgrass ([1]; 31 g ai/ha) | Plant response rating, Wheat ([5]; 31 g ai/ha) | Plant response rating, Ragweed ([6]; 31 g ai/ha) | Plant response rating, Foxtail, Giant ([9]; 31 g ai/ha) | Plant response rating, Foxtail, Giant ([10]; 16 g ai/ha) | Plant response rating, Ryegrass, Italian ([16]; 31 g ai/ha) | Plant response rating, Ryegrass, Italian ([16]; 125 g ai/ha) | Plant response rating, Nutsedge, Yellow ([18]; 16 g ai/ha)
10: Plant response rating, Wheat ([5]; 125 g ai/ha) | Plant response rating, Ragweed ([6]; 125 g ai/ha) | Plant response rating, Foxtail, Giant ([8]; 31 g ai/ha) | Plant response rating, Foxtail, Giant ([9]; 125 g ai/ha) | Plant response rating, Foxtail, Giant ([10]; 125 g ai/ha) | Plant response rating, Crabgrass, Large ([13]; 16 g ai/ha) | Plant response rating, Nutsedge, Yellow ([18]; 31 g ai/ha)
5: Plant response rating, Foxtail, Giant ([10]; 31 g ai/ha) | Plant response rating, Foxtail, Giant ([10]; 62 g ai/ha) | Plant response rating, Corn ([11]; 16 g ai/ha) | Plant response rating, Corn ([11]; 31 g ai/ha) | Plant response rating, Corn ([11]; 62 g ai/ha) | Plant response rating, Corn ([11]; 125 g ai/ha) | Plant response rating, Oilseed Rape ([15]; 16 g ai/ha) | Plant response rating, Nutsedge, Yellow ([18]; 62 g ai/ha) | Plant response rating, Nutsedge, Yellow ([18]; 125 g ai/ha)
90: Plant response rating, Soybean ([2]; 125 g ai/ha) | Plant response rating, Pigweed ([3]; 125 g ai/ha) | Plant response rating, Galium ([12]; 125 g ai/ha)
65: Plant response rating, Waterhemp ([17]; 31 g ai/ha)
20: Plant response rating, Blackgrass ([1]; 125 g ai/ha) | Plant response rating, Ragweed ([19]; 31 g ai/ha)
